# Data as given in publication PMC9686213, “Peptide Carbocycles: From −SS– to −CC– via a Late-Stage “Snip-and-Stitch”” (ACS Central Science, 2022).
# Read-outs that look alike come from different tables or passages of the source.
# Columns and labels:
# [1] = ethylene glycol/heptane, cited from earlier work
# [2] = Hydrolytic stability at pH 8.5, 50 °C, LC-MS analysis; type: physicochemical; conditions: 16 h
# From the text: (§1) We next examined the effect of our linkers on the biopharmaceutical properties of setmelanotide. The capacity of setmelanotide (SMT) to regulate appetite depends on its ability to penetrate the blood–brain barrier and to activate melanocortin-4 (MC4) receptors in the brain.[79],[80] […] To assess cell permeability, we measured the partition coefficient Peh of our carbocyclic peptides in a mixture of ethylene glycol and heptane.[81]−[84] […] Thus, log Peh values are a good approximation of in vivo permeabilities. […] Finally, we determined the stability of our carbocyclic peptides to aqueous hydrolysis and to reductive cleavage by glutathione (GSH), an approximate measure of their plasma stability.[85] GSH in the cytoplasm can reduce disulfide bonds to dicysteine peptides and can also cleave disulfide bonds through a disulfide exchange reaction.[18]−[21] […] All measurements were compared to setmelanotide (SMT).
# (§2) (1 picture or pasted object on this page, not shown here)
# [3] = Stability to reductive cleavage / disulfide exchange by glutathione (GSH); type: in vitro ADME; conditions: pH 7.4, 37 °C
# From the text: We next examined the effect of our linkers on the biopharmaceutical properties of setmelanotide. The capacity of setmelanotide (SMT) to regulate appetite depends on its ability to penetrate the blood–brain barrier and to activate melanocortin-4 (MC4) receptors in the brain.[79],[80] Replacing the −SS– bond of SMT with more lipophilic −CC– linkages could improve the CNS permeability of SMT and could also enhance its proteolytic stability. […] For aqueous solubility, we measured solvation in deionized water (pH 6 at 25 °C). […] To assess cell permeability, we measured the partition coefficient Peh of our carbocyclic peptides in a mixture of ethylene glycol and heptane.[81]−[84] […] Thus, log Peh values are a good approximation of in vivo permeabilities. […]. Thus, many of our carbocyclic analogs should have improved (up to 2.6-fold) blood–brain penetrance in vivo. Finally, we determined the stability of our carbocyclic peptides to aqueous hydrolysis and to reductive cleavage by glutathione (GSH), an approximate measure of their plasma stability.[85] GSH in the cytoplasm can reduce disulfide bonds to dicysteine peptides and can also cleave disulfide bonds through a disulfide exchange reaction.[18]−[21] […] The products were analyzed by LC-MS. […]
# [4] = Partition coefficient Peh in ethylene glycol/heptane (permeability, log Peh); type: physicochemical; conditions: UPLC peak area at 280 nm
# From the text: as §1, §2
# [5] = common small molecule CNS drugs
compound,measurement,setting,value
Cc1cc(=O)n(-c2ccccc2)n1C [antipyrine],log Peh,[1]; [5],−2.28
Clc1cccc(Cl)c1N=C1NCCN1 [clonidine],log Peh,[1]; [5],−1.80
setmelanotide [SMT],hydrolysis outcome (in words),[2],loss of a single sulfur atom
same,mixed disulfide formed (disulfide exchange),"[3]; 1 equiv. GSH, after 24 h",2%
same,mixed disulfide formed (disulfide exchange),[3]; 10 equiv. GSH,17%
same,log Peh,[4],−1.16
NC(=O)c1ccccc1 [benzamide],log Peh,[1]; reference solutes quoted 'for reference',−3.69
c1cc(CN2CCCCC2)cc(OCCCNc2nc3ccccc3s2)c1 [zolantidine],log Peh,[1]; [5],−1.47
